Laboratory results: paper PMC7011920, “Synthesis and biological evaluation of stilbene derivatives coupled to NO donors as potential antidiabetic agents” (Journal of Enzyme Inhibition and Medicinal Chemistry, 2018)
Like-named read-outs stand apart in the source and are kept apart here. Blank lines part the entries; values can stand above or below the compound they belong to.

Experiments:
aldose reductase (ALR2) = target: T1, aldose reductase (ALR2) (Mus musculus, UniProt P45376); test: In vitro ALR2 inhibitory activity (crude enzyme, NADPH decrease at 340 nm); type: biochemical, mice
T1 construct: After homogenisation and centrifugation, the crude ALR2 from mice was obtained; from tissue
Protocol: The enzyme aldose reductase (ALR2) is a member of the aldo–keto reductase superfamily. The development and progression of chronic diabetic complications are confirmed to be quite related to the activation and/or over expression of ALR2[25]. Therefore, ALR2 inhibitors may play a critical role in preventing or treating these complications.
After homogenisation and centrifugation, the crude ALR2 from mice was obtained. The inhibitory activity of the compounds on ALR2 was carried out using crude enzyme and different concentrations of the compounds (1–1000 µg/ml) in 200 mM PBS (pH 6.2) containing 0.10 mM NADPH. The reaction was initiated by addition of glyceraldehyde and the decrease in the optical density of NADPH at 340 nm was recorded for 3 min. All experiments were run in triplicate. IC50 of the compounds was calculated. The flavonoid quercetin was used as a reference in the ALR2 assay.

[1] = system: AGEs (advanced glycation end products) formation; test: In vitro inhibitory activity of AGEs formation (bovine serum albumin/glucose, fluorescence); details: 50% inhibition of fluorescence intensity of AGE relative to 0.1% DMSO; mean ± SD (n = 3)
Protocol: Advanced glycation end products are a group of complex and heterogeneous compounds, which are implicated in a number of biochemical abnormalities associated with diabetes[21]^,[22]. Therefore, the discovery of AGEs inhibitors would be beneficial to the prevention and treatment of diabetic or other pathogenic complications.
To prepare the AGE reaction solution, 10 mg/ml of bovine serum albumin in 50 mM PBS (pH 7.4) was added to 0.2 M glucose, and 0.02% sodium azide was added to prevent bacterial growth. The reaction mixture (3 ml) was then mixed with various concentrations (0.5–1000 µg/ml) of the target compounds (1 ml) dissolved in DMSO. After incubating at 37 °C for 14 d, the fluorescence intensity of AGE was determined by a fluorospectrophotometer (PE, Cincinnati, OH) with excitation and emission wavelengths at 350 nm and 420 nm[30], respectively. All experiments were run in triplicate. Aminoguanidine hydrochloride was used as a reference compound. The inhibition rate of AGEs formation and the IC50 value of each sample were calculated according to the formula. Inhibition rate %={[(AC−AB)−(AS−ASB)]/(AC−AB)}×100% where AC is the absorbance of control group (1.0 ml glucose +1.0 ml bovine serum albumin +1.0 ml sodium azide +1.0 ml DMSO); AB is the absorbance of blank group (1.0 ml PBS +1.0 ml bovine serum albumin +1.0 ml sodium azide +1.0 ml DMSO); AS is the absorbance of sample group (1.0 ml glucose +1.0 ml bovine serum albumin +1.0 ml sodium azide +1.0 ml target compound solution or aminoguanidine hydrochloride solution); ASB is the absorbance of sample blank group (1.0 ml PBS +1.0 ml bovine serum albumin +1.0 ml sodium azide +1.0 ml target compound solution or aminoguanidine hydrochloride solution).

α-Glucosidase = target: T2, α-Glucosidase (Saccharomyces cerevisiae, UniProt P53341); test: biochemical
T2 construct: purchased Sigma Aldrich G0660-750UN
Protocol: α-Glucosidases, enzymes anchored in the brush border of the small intestine, are responsible for catalysing the hydrolysis of carbohydrates.
α-Glucosidase (G0660-750UN, Sigma Aldrich, St. Louis, MO) and 4-nitrophenyl α-D-glucopyranoside (PNPG, Macklin) were dissolved in phosphate buffer (pH 6.8, 100 mM), and the test compounds were dissolved in DMSO solution. The experiment was divided into blank group, control group, sample blank group and sample group. The reagents were loaded in 96-well plates at the dose of the table (Table 3). The solution was bathed in 37 °C water for 10 min, after the end, enzyme solution was added. After reaction at 37 °C for 20 min, 70 µL Na2CO3 solution ([…]) was added to stop the reaction. All experiments were run in triplicate. […] Since PNPG can produce glucose and p-nitrophenol (PNP) under the action of α-glucosidase, PNP has the greatest absorption at 405 nm. The absorbance was determined by the microplate reader, and the inhibition rate of α-glucosidase and the IC50 value of each sample were calculated according to the formula. Inhibition rate %={[(AC−AB)−(AS−ASB)]/(AC−AB)}×100% where AC is the absorbance of control group; AB is the absorbance of blank group; AS is the absorbance of sample group; ASB is the absorbance of sample blank group.

[2] = system: STZ-induced diabetic mice; test: Acute hypoglycaemic assay in STZ-diabetic mice; type: in vivo; details: for Blood glucose concentration: mean ± SEM, six mice
Protocol: The antidiabetic activity was determined by using a standard method. […] Especially, compound 7c caused significant decreases in blood glucose levels when compared with vehicle-treated groups (p < .05). […] In STZ-diabetic animals, the hypoglycaemic effect of pterostilbene (40 mg/kg of bw) was larger than 50% since 5 h and persisted throughout the experiment. Target compound 7c (40 mg/kg of bw) caused significant decreases in blood glucose levels compared with pterostilbene (40 mg/kg of bw).
Type II DM was induced in mice by a single intraperitoneal injection of freshly prepared STZ (Sigma Aldrich, St. Louis, MO) dissolved in 0.1 M citrate buffer, pH 4.5, in a […] of 120 mg/kg of bw. After seven days of STZ administration, blood glucose levels of each mouse were determined. Mice with blood glucose levels higher than 11 mM were considered diabetic and were included in the study.
STZ-induced diabetic mice and normal mice were placed in single cages with wire-net floors and deprived of food for 12 h before experimentation but allowed free access to tap water throughout. The compounds (at the doses of 10, 40, and 100 mg/kg of bw) were suspended in 0.05% Tween-80 in saline solution. Glibenclamide (10 mg/kg of bw) was suspended in the same vehicle. The target compounds were freshly prepared immediately before experimentation and administered by the intragastrical route at the doses of 10 ml/kg of bw. Control mice received only the vehicle (0.05% Tween-80 in saline solution) by the same route. Blood glucose levels were measured at 0, 1.5, 3, 5, 7, and 9 h after drugs administration.

[3] = read-out: IC50 value, ALR2 inhibitory activity
[4] = read-out: IC50 value, α-Glucosidase inhibitory activity
[5] = dose 40 mg/kg per os, 1.5 h vs 0 h
[6] = dose 40 mg/kg per os, 3 h vs 0 h
[7] = dose 40 mg/kg per os, 5 h vs 0 h
[8] = dose 40 mg/kg per os, 7 h vs 0 h
[9] = dose 40 mg/kg per os, 9 h vs 0 h

T2 sequence (P53341 whole entry): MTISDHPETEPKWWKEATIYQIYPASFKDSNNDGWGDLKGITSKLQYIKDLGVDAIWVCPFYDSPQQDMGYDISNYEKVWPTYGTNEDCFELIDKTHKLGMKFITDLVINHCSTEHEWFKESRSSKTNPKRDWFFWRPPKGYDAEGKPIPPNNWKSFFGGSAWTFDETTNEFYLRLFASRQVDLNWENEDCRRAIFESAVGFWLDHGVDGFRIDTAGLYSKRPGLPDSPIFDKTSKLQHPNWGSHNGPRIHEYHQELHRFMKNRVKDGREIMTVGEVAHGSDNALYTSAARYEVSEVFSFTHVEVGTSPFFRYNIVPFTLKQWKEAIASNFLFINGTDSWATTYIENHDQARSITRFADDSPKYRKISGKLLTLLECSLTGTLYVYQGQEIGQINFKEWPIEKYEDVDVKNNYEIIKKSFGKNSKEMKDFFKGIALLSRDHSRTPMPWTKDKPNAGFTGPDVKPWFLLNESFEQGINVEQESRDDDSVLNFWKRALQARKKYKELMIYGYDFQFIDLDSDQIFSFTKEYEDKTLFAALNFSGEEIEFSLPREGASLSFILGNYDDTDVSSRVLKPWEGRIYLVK

Compound: O=c1c(O)c(-c2ccc(O)c(O)c2)oc2cc(O)cc(O)c12 [Quercetin, reference compound]
IC50 (aldose reductase (ALR2)): 3.71 ± 0.29 µM

IC50 [1]: 2.9 ± 0.09 µM
melting point: 142.2 to 143.2 °C
IC50 (aldose reductase (ALR2); [3]): > 1000 µM
IC50 (α-Glucosidase; [4]): > 1000 µM
Compound: COc1cc(/C=C/c2ccc(OCCO[N+](=O)[O-])cc2)cc(OC)c1 [3a, O4′-Nitrooxyethyl pterostilbene]

Compound: N=C(N)NN [AG, amino guanidine, reference compound]
IC50 [1]: 283 ± 8.52 µM

IC50 [1]: 1.99 ± 0.51 µM
IC50 (aldose reductase (ALR2); [3]): > 1000 µM
IC50 (α-Glucosidase; [4]): > 1000 µM
Compound: COc1cc(/C=C/c2ccc(O)cc2)cc(OC)c1 [Pterostilbene, reference compound]
hypoglycaemic effect ([2]; 40 mg/kg of bw, STZ-diabetic animals, since 5 h and throughout the experiment): > 50%
Blood glucose concentration ([2]; dose 40 mg/kg per os, 0 h): 17.2 ± 7.0 mM
Blood glucose concentration ([2]; dose 40 mg/kg per os, 1.5 h): 12.1 ± 6.4 mM
% Variation of glycaemia [2, 5]: –29.91%
Blood glucose concentration ([2]; dose 40 mg/kg per os, 3 h): 10.2 ± 6.2 mM
% Variation of glycaemia [2, 6]: –40.89%
Blood glucose concentration ([2]; dose 40 mg/kg per os, 5 h): 8.4 ± 5.6 mM
% Variation of glycaemia [2, 7]: –51.42%
Blood glucose concentration ([2]; dose 40 mg/kg per os, 7 h): 7.7 ± 5.3 mM
% Variation of glycaemia [2, 8]: –55.36%
Blood glucose concentration ([2]; dose 40 mg/kg per os, 9 h): 6.9 ± 4.3 mM
% Variation of glycaemia [2, 9]: –59.82%

IC50 [1]: 2.39 ± 0.11 µM
melting point: 110.9 to 111.3 °C
IC50 (aldose reductase (ALR2); [3]): > 1000 µM
IC50 (α-Glucosidase; [4]): > 1000 µM
Compound: COc1cc(/C=C/c2ccc(OCCCCO[N+](=O)[O-])cc2)cc(OC)c1 [3b]

Compound: COc1ccc(Cl)cc1C(=O)NCCc1ccc(S(=O)(=O)NC(=O)NC2CCCCC2)cc1 [Glibenclamide, reference compound]
Blood glucose concentration ([2]; dose 10 mg/kg per os, 0 h): 20.2 ± 5.4 mM
Blood glucose concentration ([2]; dose 10 mg/kg per os, 1.5 h): 11.6 ± 4.9 mM
% Variation of glycaemia ([2]; dose 10 mg/kg per os, 1.5 h vs 0 h): –42.63%
Blood glucose concentration ([2]; dose 10 mg/kg per os, 3 h): 7.6 ± 3.9 mM
% Variation of glycaemia ([2]; dose 10 mg/kg per os, 3 h vs 0 h): –62.32%
Blood glucose concentration ([2]; dose 10 mg/kg per os, 5 h): 6.1 ± 3.6 mM
% Variation of glycaemia ([2]; dose 10 mg/kg per os, 5 h vs 0 h): –69.58%
Blood glucose concentration ([2]; dose 10 mg/kg per os, 7 h): 5.7 ± 3.6 mM
% Variation of glycaemia ([2]; dose 10 mg/kg per os, 7 h vs 0 h): –71.84%
Blood glucose concentration ([2]; dose 10 mg/kg per os, 9 h): 5.6 ± 3.6 mM
% Variation of glycaemia ([2]; dose 10 mg/kg per os, 9 h vs 0 h): –72.11%

Compound: Oc1ccc(/C=C/c2cc(O)cc(O)c2)cc1 [Resveratrol, reference compound]
IC50 [1]: 0.83 ± 0.21 µM
IC50 (aldose reductase (ALR2); [3]): 17 ± 0.31 µM
IC50 (α-Glucosidase): 242 ± 17 µM
Blood glucose concentration ([2]; dose 40 mg/kg per os, 0 h): 20.0 ± 2.6 mM
Blood glucose concentration ([2]; dose 40 mg/kg per os, 1.5 h): 16.3 ± 2.9 mM
% Variation of glycaemia [2, 5]: –18.42%
Blood glucose concentration ([2]; dose 40 mg/kg per os, 3 h): 14.0 ± 2.0 mM
% Variation of glycaemia [2, 6]: –29.83%
Blood glucose concentration ([2]; dose 40 mg/kg per os, 5 h): 12.4 ± 2.1 mM
% Variation of glycaemia [2, 7]: –38.08%
Blood glucose concentration ([2]; dose 40 mg/kg per os, 7 h): 11.2 ± 1.8 mM
% Variation of glycaemia [2, 8]: –44.25%
Blood glucose concentration ([2]; dose 40 mg/kg per os, 9 h): 10.7 ± 1.4 mM
% Variation of glycaemia [2, 9]: –46.33%
